{"source": "patent US20050176778A1", "about": "“Isoprenyl derivatives and their use in the title treatment and prevention of osteoporosis and cardiovascular calcification” (Vitak BV, priority 2001, published 2005)", "key": {"[1]": {"tested_on": "vascular calcification (aortae and carotid arteries)", "test": "Experiment 4: vascular calcification (Von Kossa staining) in rats treated with warfarin, vitamin K-1 and increasing doses of MK-4 (KW model)", "format": "in vivo, male Lewis rats", "description": "In the present invention the “Vitamin K1 plus warfarin” model was used to test effects of isoprenyl derivatives on vascular calcification. This model is also referred to as the “KW model for calcification” or “KW model”. Because of the parallels between vascular calcification and calcium metabolism in bone, the model is regarded to be valid for describing potential effects on bone. Whereas in this model the bone deformations will not become visible before 9 months of treatment, calcification of the large arteries is usually apparent within 4 weeks of treatment. This model therefore provides an excellent in vivo model to test the compounds according to the invention for their tissue distribution, toxicity and effectivity. […] It was shown that calcification was not inhibited by vitamin K-1 in doses going up from 40 to 600 mg/kg of body weight per day. The highest dose was 15,000 times the amount required for normal blood coagulation in untreated animals, and 15 times the amount required for normal blood coagulation in warfarin-treated animals. At these high intakes all tissues contain excessive amounts of vitamin K-1, which apparently are incapable of supporting the synthesis of inhibitors of calcium precipitation such as the Gla-protein MGP. […]"}, "postmenopausal bone loss": {"tested_on": "postmenopausal bone loss", "conditions": "cited from earlier work"}, "[2]": {"tested_on": "vascular calcification (aortic arch and carotid arteries)", "test": "Experiment 3: vascular calcification (Von Kossa staining) in rats treated with warfarin and increasing doses of vitamin K-1", "format": "in vivo, male Lewis rats", "description": "In the present invention the “Vitamin K1 plus warfarin” model was used to test effects of isoprenyl derivatives on vascular calcification. This model is also referred to as the “KW model for calcification” or “KW model”. Because of the parallels between vascular calcification and calcium metabolism in bone, the model is regarded to be valid for describing potential effects on bone.\nThe same animals described in experiment 2 were killed, and the aortic arch and carotid arteries were removed and stained for calcium deposits using the Von Kossa staining and histochemical inspection."}, "prothrombin [3]": {"tested_on": "prothrombin", "test": "Experiment 2: dietary requirement of vitamin K-1 in warfarin-treated rats, plasma prothrombin level", "format": "in vivo, male Lewis rats", "method": "In experiment 2 the dietary requirement of vitamin K-1 in warfarin-treated (300 mg Vitamin K-1 per kg body weight per day) male Lewis rats, 6 weeks of age, was measured on the basis of blood coagulation tests after a treatment period of 4 weeks. At a level of 40 mg vitamin K-1 per kg body weight per day a normal prothrombin synthesis was maintained.\nThirty six male Lewis rats (6 weeks of age) were treated with an excess of warfarin (300 mg vitamin K-1 per kg body weight per day) to block all dithiol reductase present in the tissues. They were subdivided into groups of 6 animals each and received vitamin K-1 in the following doses: 20, 40, 70, 100, 300, and 600 mg/kg body weight per day. […] It was concluded that […] of vitamin K-1 per kg body weight per day effectively protects the animals against warfarin-induced bleeding."}, "prothrombin [4]": {"tested_on": "prothrombin", "test": "Experiment 1: dietary requirement of vitamin K-1 in untreated rats, prothrombin concentration (one-stage coagulation assay)", "format": "in vivo, male Lewis rats", "conditions": "for Mean prothrombin concentration: four weeks", "method": "In experiment 1 the dietary requirement of vitamin K-1 was measured in untreated male Lewis rats, 6 weeks of age, on the basis of blood coagulation tests after a treatment period of 4 weeks. At an intake of 40 microgram vitamin K-1 per kg body weight per day, the synthesis of coagulation factors had reached its (maximal) plateau level.\nMale rats of the Lewis strain were used throughout our experiments, six animals per group. Thirty six animals entered the experiment at the age of 6 weeks and received a vitamin K deficient diet (Hope Farms, Woerden, The Netherlands) for one week to deplete them from endogenous vitamin K. During the experiment they were housed in coprophagy-preventing cages. After this period citrated blood was taken from the tail vein, and the prothrombin concentrations (one-stage coagulation assay) were checked to be below the normal reference value. At that time they received vitamin K-deficient food to which controlled amounts of vitamin K-1 were added in the following doses: 0.1, 0.2, 0.4, 0.6, 0.8, and 1.0 mg/kg of food. The daily food intake was recorded, and the body weight of the animals was measured regularly. After four weeks of treatment at the indicated doses again blood was taken and prothrombin concentrations were measured. Mean prothrombin concentrations in the groups were: 23%, 48%, 82%, 98%, 102%, and 99% of pooled normal rat reference plasma. […] This amount corresponds with an intake of 40 micrograms of vitamin K-1 per kg body weight per day."}}, "note": "“Also recorded” adds a separate entry of the source."}
{"smiles": "CC(C)=CCC/C(C)=C/CC/C(C)=C/CC/C(C)=C/CC1=C(C)C(=O)c2ccccc2C1=O", "note": "[MK-4, 2-methyl 3-geranylgeranyl naphthoquinone]", "values": [{"measurement": "Inhibition of vascular calcification", "setting": "[1]; KW model, addition of 10 mg/kg body weight per day of MK-4", "value": "effectively inhibited all vascular calcification"}, {"measurement": "Vascular calcification (Von Kossa staining)", "setting": "[1]; warfarin 300 mg/kg/d plus vitamin K-1 70 mg/kg/d plus MK-4 10, 20 and 50 mg per kg body weight per day, 6 weeks", "value": "no calcification"}, {"measurement": "Action on bone", "setting": "postmenopausal bone loss; high doses of MK-4 (45 mg/day)", "value": "comparable with that of bisphosphonates"}, {"measurement": "Effect on postmenopausal bone loss", "setting": "postmenopausal bone loss; high doses", "value": "almost completely inhibit postmenopausal bone loss"}]}
{"smiles": "CC1=C(C/C=C(\\C)CCC[C@H](C)CCC[C@H](C)CCCC(C)C)C(=O)c2ccccc2C1=O", "note": "[vitamin K-1]", "values": [{"measurement": "Inhibition of calcification", "setting": "[2]; KW model, vitamin K-1 doses going up from 40 to 600 mg/kg of body weight per day", "value": "not inhibited"}, {"measurement": "Vascular calcification (Von Kossa staining)", "setting": "[2]; warfarin 300 mg/kg/d plus vitamin K-1 20, 40, 70, 100, 300 and 600 mg/kg body weight per day, 4 weeks", "value": "substantial calcification; also recorded: Calcification of the media (notably the elastic lamelae) was found in all animals"}, {"measurement": "Dose that effectively protects the animals against warfarin-induced bleeding", "setting": "prothrombin [3]", "value": "70 mg of vitamin K-1 per kg body weight per day"}, {"measurement": "Level at which a normal prothrombin synthesis was maintained", "setting": "prothrombin [3]; 4 weeks", "value": "40 mg vitamin K-1 per kg body weight per day"}, {"measurement": "Circulating prothrombin concentration", "setting": "prothrombin [3]; 20 and 40 mg of vitamin K-1 per day", "value": "60 % of normal"}, {"measurement": "Circulating prothrombin concentration", "setting": "prothrombin [3]; all higher intakes (70, 100, 300, 600 mg/kg body weight per day)", "value": "comparable to normal reference values"}, {"measurement": "Diet content sufficient to maintain normal prothrombin synthesis", "setting": "prothrombin [4]; untreated rats, content in food", "value": "0.6 mg of vitamin K-1 per kg"}, {"measurement": "Mean prothrombin concentration", "setting": "prothrombin [4]; vitamin K-1 0.1 mg/kg of food, after vitamin K deficient diet", "value": "23 % of pooled normal rat reference plasma"}, {"measurement": "Mean prothrombin concentration", "setting": "prothrombin [4]; vitamin K-1 0.2 mg/kg of food", "value": "48 % of pooled normal rat reference plasma"}, {"measurement": "Mean prothrombin concentration", "setting": "prothrombin [4]; vitamin K-1 0.4 mg/kg of food", "value": "82 % of pooled normal rat reference plasma"}, {"measurement": "Mean prothrombin concentration", "setting": "prothrombin [4]; vitamin K-1 0.6 mg/kg of food", "value": "98 % of pooled normal rat reference plasma"}, {"measurement": "Mean prothrombin concentration", "setting": "prothrombin [4]; vitamin K-1 0.8 mg/kg of food", "value": "102 % of pooled normal rat reference plasma"}, {"measurement": "Mean prothrombin concentration", "setting": "prothrombin [4]; vitamin K-1 1.0 mg/kg of food", "value": "99 % of pooled normal rat reference plasma"}]}
